Target: T1, Human coagulation factor (F)XI (Homo sapiens, UniProt P03951)
T1 construct: purchased Haematologic Technologies Inc. (FXI); Enzyme Research Laboratories (FXIIa) HCXI-150 (FXI); HFXIIa (FXIIa)
Assay: Inhibition of FXIIa mediated activation of FXI (activation of human Factor XI to XIa by human Factor α-XIIa)
Type: biochemical
Conditions: human FXI pre-incubated with compound 30 min at 22° C., activation by human FXIIa 60 min, z-GPR-AFC substrate fluorescence, 4 parameter logistic fit; read-out: Inhibition of FXIIa meditated activation of FXI
Procedure: Inhibition of FXIIa Mediated Activation of FXI
Activation of Human Factor XI to XIa by Human Factor α-XIIa
The assay was performed in 50 mM HEPES, 150 mM NaCl, 5 mM CaCl2, 0.1% PEG-8000, pH 7.4 buffer in black, flat-bottom, polystyrene microplates (Corning, Cat #3573). Serial dilutions (10-point, 3.333-fold) of the test compounds delivered as 10 mM DMSO stocks were prepared in the Labcyte Echo-qualified PP 384 well microplates (Labcyte, Cat #P-05525). Human coagulation factor (F)XI (Haematologic Technologies Inc., Cat #HCXI-150, concentration 46 nM, 19.5 uL) was pre-incubated with 0.5 uL of the test compounds for 30 min at 22° C. The activation was initiated by addition of 10 uL of human coagulation factor (F)XIIa (Enzyme Research Laboratories, Cat #HFXIIa, concentration 30 nM) and the reaction proceeded for 60 min at 22° C., after which it was quenched by addition of a selective inhibitor of FXIIa (Compound 54 in International Patent Publication WO2018093695) concentration 600 uM in DMSO, 1 uL). 10 min after the quench, 29 uL of z-GPR-AFC substrate (Sigma, Cat #C0980-10 MG, concentration 200 uM) was added into each well and the detection reaction proceeded for 60 min at 22° C. Fluorescence at 405/510 nm was measured in end-point mode using an Envision plate-reader (Perkin Elmer). IDBS Activity Base XE (ABase) analysis using 4 parameter logistic fit was performed to determine Minimum, Maximum, EC50, and Slope Factor for each compound.

T1 sequence (P03951 19-625): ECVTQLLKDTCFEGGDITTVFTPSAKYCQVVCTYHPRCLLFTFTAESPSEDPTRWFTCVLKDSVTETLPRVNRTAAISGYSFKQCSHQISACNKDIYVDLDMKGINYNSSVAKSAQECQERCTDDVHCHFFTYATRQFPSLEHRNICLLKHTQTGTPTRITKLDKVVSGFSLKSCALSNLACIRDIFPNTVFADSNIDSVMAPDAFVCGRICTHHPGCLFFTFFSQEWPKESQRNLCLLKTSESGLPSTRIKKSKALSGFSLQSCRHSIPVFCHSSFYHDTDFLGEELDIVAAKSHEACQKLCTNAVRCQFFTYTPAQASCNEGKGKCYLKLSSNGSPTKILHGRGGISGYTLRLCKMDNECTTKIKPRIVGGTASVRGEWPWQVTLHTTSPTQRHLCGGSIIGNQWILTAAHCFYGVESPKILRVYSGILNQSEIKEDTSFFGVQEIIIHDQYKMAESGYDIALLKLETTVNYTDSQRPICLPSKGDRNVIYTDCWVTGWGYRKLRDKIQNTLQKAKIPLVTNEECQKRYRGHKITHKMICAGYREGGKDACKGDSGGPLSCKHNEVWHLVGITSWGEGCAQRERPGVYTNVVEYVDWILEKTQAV

Row | SMILES | EC50
1 | O=C(c1cc(C(=O)N2CCCCC2)c2cc(OCc3cn4ccccc4n3)ccc2n1)N1CCC(n2cccn2)CC1 [Example 25, (4-(1H-pyrazol-1-yl)piperidin-1-yl)(6-(imidazo[1,2-a]-pyridin-2-ylmethoxy)-4-(piperidine-1-carbonyl)quin-olin-2-yl)methanone] | 34.2 nM
2 | N#Cc1cc(Cl)ccc1COc1ccc2nc(C(=O)N3CCC(C#N)(c4ccccc4)CC3)cc(C(=O)N3CCCCC3)c2c1 [Example 27, 1-(6-((4-chloro-2-cyanobenzyl)oxy)-4-(piperidine-1l-carbonyl)quinoline-2-carbonyl)-4-phenylpiperidine-4-carbonitrile] | 39 nM
3 | N#CC1(c2ccccc2)CCN(C(=O)c2cc(C(=O)N3CCCCC3)c3cc(OCc4ccc(F)cc4[N+](=O)[O-])ccc3n2)CC1 [Example 28, 1-(6-((4-fluoro-2-nitro-benzyl)oxy)-4-(piperidine-1-carbonyl)quinoline-2-carbon-yl)-4-phenylpiperidine-4-carbonitrile] | 38.9 nM
4 | N#CC1(c2ccccc2)CCN(C(=O)c2cc(C(=O)N3CCCCC3)c3cc(OCc4cccc([N+](=O)[O-])c4)ccc3n2)CC1 [Example 29, 1-(6-((3-nitrobenzyl)oxy)-4-(piperidine-1-carbonyl)quin-oline-2-carbonyl)-4-phenyl-piperidine-4-carbonitrile] | 39.7 nM
5 | N#Cc1cccc(COc2ccc3nc(C(=O)N4CCC(C#N)(c5ccccc5)CC4)cc(C(=O)N4CCCCC4)c3c2)c1 [Example 32, 1-(6-((3-cyanobenzyl)oxy)-4-(piperidine-1-carbonyl)quin-oline-2-carbonyl)-4-phenyl-piperidine-4-carbonitrile] | 46.9 nM
6 | N#CC1(c2ccccc2)CCN(C(=O)c2cc(C(=O)N3CCCCC3)c3cc(OCc4cccc(OC(F)F)c4)ccc3n2)CC1 [Example 33, 1-(6-((3-(difluoro-l3-meth-oxy)phenyl)methoxy)-4-(piperidine-1-carbonyl)quin-oline-2-carbonyl)-4-phenyl-piperidine-4-carbonitrile] | 35.9 nM
7 | N#CC1(c2ccccc2)CCN(C(=O)c2cc(C(=O)N3CCCCC3)c3cc(OCc4ccc(-c5nnco5)cc4)ccc3n2)CC1 [Example 34, 1-(6-((4-(1,3,4-oxadiazol-2-yl)benzyl)oxy)-4-(piperidine-1-carbonyl)quinoline-2-car-bonyl)-4-phenylpiperidine-4-carbonitrile] | 41.4 nM
8 | N#CC1(c2ccccc2)CCN(C(=O)c2cc(C(=O)N3CCCCC3)c3cc(OCc4ccc(OC(F)(F)F)cc4)ccc3n2)CC1 [Example 35, 4-phenyl-1-(4-(piperidine-1-carbonyl)-6-((4-(trifluoro-methoxy)benzyl)oxy)quin-oline-2-carbonyl)piperidine-4-carbonitrile] | 37.7 nM
9 | N#CC1(c2ccccc2)CCN(C(=O)c2cc(C(=O)N3CCCCC3)c3cc(OCc4ccc([N+](=O)[O-])cc4)ccc3n2)CC1 [Example 37, 1-(6-((4-nitrobenzyl)oxy)-4-(piperidine-1-carbonyl)quin-oline-2-carbonyl)-4-phenyl-piperidine-4-carbonitrile] | 48.2 nM
10 | N#CC1(c2ccccc2)CCN(C(=O)c2cc(C(=O)N3CCCCC3)c3cc(OCc4ccc(C(F)(F)F)cc4)ccc3n2)CC1 [Example 38, 4-phenyl-1-(4-(piperidine-1-carbonyl)-6-((4-(trifluoro-methyl)benzyl)oxy)quin-oline-2-carbonyl)piperidine-4-carbonitrile] | 49.5 nM
11 | COc1ccc(COc2ccc3nc(C(=O)N4CCC(C#N)(c5ccccc5)CC4)cc(C(=O)N4CCCCC4)c3c2)c(Cl)c1 [Example 40, 1-(6-((2-chloro-4-methoxy-benzyl)oxy)-4-(piperidine-1-carbonyl)quinoline-2-carbon-yl)-4-phenylpiperidine-4-carbonitrile] | 49.9 nM
12 | COc1ccc(COc2ccc3nc(C(=O)N4CCC(C#N)(c5ccccc5)CC4)cc(C(=O)N4CCCCC4)c3c2)c(C(F)(F)F)c1 [Example 42, 1-(6-((4-methoxy-2-(tri-fluoromethyl)benzyl)oxy)-4-(piperidine-1-carbonyl)quin-oline-2-carbonyl)-4-phenyl-piperidine-4-carbonitrile] | 48.7 nM
13 | N#CC1(c2ccccc2)CCN(C(=O)c2cc(C(=O)N3CCCCC3)c3cc(OCc4ccc(F)cc4F)ccc3n2)CC1 [Example 43, 1-(6-((2,4-difluorobenzyl)-oxy)-4-(piperidine-1-carbon-yl)quinoline-2-carbonyl)-4-phenylpiperidine-4-carbonitrile] | 38.5 nM
14 | N#Cc1ccc(F)cc1COc1ccc2nc(C(=O)N3CCC(C#N)(c4ccccc4)CC3)cc(C(=O)N3CCCCC3)c2c1 [Example 44, 1-(6-((2-cyano-5-fluoro-benzyl)oxy)-4-(piperidine-1-carbonyl)quinoline-2-carbon-yl)-4-phenylpiperidine-4-carbonitrile] | 44.6 nM
15 | N#Cc1cc(F)ccc1COc1ccc2nc(C(=O)N3CCC(C#N)(c4ccccc4)CC3)cc(C(=O)N3CCCCC3)c2c1 [Example 45, 1-(6-((2-cyano-4-fluoro-benzyl)oxy)-4-(piperidine-1-carbonyl)quinoline-2-carbon-yl)-4-phenylpiperidine-4-carbonitrile] | 36.9 nM

Further lines, results first:

Row | EC50 | SMILES
16 | 28.9 nM | O=C(c1cc(C(=O)N2CCCCC2)c2cc(OCc3nc4ccccc4s3)ccc2n1)N1CCC(n2cccn2)CC1 [Example 26, (4-(1H-pyrazol-1-yl)piperidin-1-yl)(6-(benzo[d]thiazol-2-ylmethoxy)-4-(piperidine-1-carbonyl)quinolin-2-yl) methanone]
17 | 30.1 nM | N#Cc1ccccc1COc1ccc2nc(C(=O)N3CCC(C#N)(c4ccccc4)CC3)cc(C(=O)N3CCCCC3)c2c1 [Example 30, 1-(6-((2-cyanobenzyl)oxy)-4-(piperidine-1-carbonyl)quin-oline-2-carbonyl)-4-phenyl-piperidine-4-carbonitrile]
18 | 24.9 nM | N#Cc1ccc(COc2ccc3nc(C(=O)N4CCC(C#N)(c5ccccc5)CC4)cc(C(=O)N4CCCCC4)c3c2)cc1 [Example 31, 1-(6-((4-cyanobenzyl)oxy)-4-(piperidine-1-carbonyl)quin-oline-2-carbonyl)-4-phenyl-piperidine-4-carbonitrile]
19 | 29.1 nM | N#CC1(c2ccccc2)CCN(C(=O)c2cc(C(=O)N3CCCCC3)c3cc(OCc4ccc(OC(F)F)cc4)ccc3n2)CC1 [Example 36, 1-(6-((4-(difluoro-l3-meth-oxy)phenyl)methoxy)-4-(piperidine-1-carbonyl)quin-oline-2-carbonyl)-4-phenyl-piperidine-4-carbonitrile]
20 | 31.8 nM | COc1ccc(COc2ccc3nc(C(=O)N4CCC(C#N)(c5ccccc5)CC4)cc(C(=O)N4CCCCC4)c3c2)cc1F [Example 39, 1-(6-((3-fluoro-4-methoxy-benzyl)oxy)-4-(piperidine-1-carbonyl)quinoline-2-carbon-yl)-4-phenylpiperidine-4-carbonitrile]
21 | 30.5 nM | COc1cccc(COc2ccc3nc(C(=O)N4CCC(C#N)(c5ccccc5)CC4)cc(C(=O)N4CCCCC4)c3c2)c1 [Example 41, 1-(6-((3-methoxybenzyl)oxy)-4-(piperidine-1-carbonyl)quin-oline-2-carbonyl)-4-phenyl-piperidine-4-carbonitrile]
22 | 33.7 nM | N#CC1(c2ccccc2)CCN(C(=O)c2cc(C(=O)N3CCCCC3)c3cc(OCCCn4cccc4)ccc3n2)CC1 [Example 46, 1-(6-(3-(1H-pyrrol-1-yl)-propoxy)-4-(piperidine-1-car-bonyl)quinoline-2-carbonyl)-4-phenylpiperidine-4-carbonitrile]

— patent US12304899B2, “Factor XI activation inhibitors” (Merck Sharp & Dohme LLC, priority 2019, dated 2025)
